These results are taken from patent US11358977B2, “Deuterated pyridone amides and prodrugs thereof as modulators of sodium channels” (VERTEX PHARMACEUTICALS INCORPORATED, priority 2017, dated 2022).

What is called IC50 is the concentration at which inhibition is half-maximal.

Data set [1] in a line: In vitro hepatocyte assay: prodrug conversion to parent compound. It is filed as in vitro ADME, human. As to the method: Materials. Cryopreserved human hepatocytes and Cryopreserved Hepatocytes Recovery Medium (CHRM™) were purchased from Life Technologies (Carlsbad, Calif.). Gibco™ Leibovitz's L-15 Medium was purchased from Fisher Scientific (Waltham, Mass.).
Methods. 10 mM stock solutions containing Compound 20 and Compound 13 were prepared in DMSO. Equal volumes of the two 10 mM stock solutions were mixed to form a combination stock solution containing Compound 20 and Compound 13 in concentrations of 5 mM each. The 5 mM combination stock solution was diluted to a concentration of 50 μM of each compound in DMSO (“50 μM combination stock”). Cryopreserved human hepatocytes were thawed in CHRM™ medium and prepared as a suspension in incubation medium (L-15 Medium with supplements containing glucose, HEPES buffer and NaHCO3), with the final cell concentration of 0.625 million cells/mL. In a 48 well plate, 1 μL of the 50 μM combination stock and then 199 μL of hepatocyte suspension (0.625 million cells/mL) were added to each well. The plate was covered and incubated at 37° C. in an incubator with gentle shaking (50 rpm). The reactions were quenched at 0, 0.25, 0.5, 1 and 2 hours by adding 200 μL of ice-cold quench solution (ACN:MeOH:0.1% aqueous formic acid, 2:2:1) containing internal standard (n=3 per time point). […] LC-MS/MS analysis was conducted using a Phenomenex Luna C8 column (3 micron, 2 mm diameter×30 mm long, at room temperature) eluted with a gradient consisting of mobile phases of 0.1% formic acid in water and 0.1% formic acid in acetonitrile at a total flow rate of 0.6 mL/min and a total run time of 4.5 minutes. The analytes were detected by MS/MS with Electrospray Ionization (ESI) in the mode of multiple reaction monitoring (MRM). The injection volume was 10 μL.

Data set [2] has as its target T1, human NaV 1.8 (Homo sapiens, UniProt Q9Y5Y9).
T1 construct: expressed in transfected cells; host or cells: HEK cells, grown under blasticidin selection; KIR2.1 BacMam virus added before seeding
Briefly: E-VIPR assay for NaV inhibition. Particulars: HEK cells expressing human NaV 1.8, E-VIPR. It counts as cell-based. The text has this:
Sodium ion channels are voltage-dependent proteins that can be activated by inducing membrane voltage changes by applying electric fields. […] The instrument comprises a microtiter plate handler, an optical system for exciting the coumarin dye while simultaneously recording the coumarin and oxonol emissions, a waveform generator, a current- or voltage-controlled amplifier, and parallel electrode pairs that are inserted into assay plate wells. Under integrated computer control, this instrument passes user-programmed electrical stimulus protocols to cells within the wells of the microtiter plate.
The solution was made by adding 10% Pluronic F127 stock equal to combined volumes of CC2-DMPE and DiSBAC6(3).
Then 25 μL per well from compound plate was transferred to each cell plate.
A pre-stimulus recording was performed for 0.5 seconds to obtain the un-stimulated intensities baseline. The stimulatory waveform was followed by 0.5 seconds of post-stimulation recording to examine the relaxation to the resting state.

T1 sequence (Q9Y5Y9 whole entry): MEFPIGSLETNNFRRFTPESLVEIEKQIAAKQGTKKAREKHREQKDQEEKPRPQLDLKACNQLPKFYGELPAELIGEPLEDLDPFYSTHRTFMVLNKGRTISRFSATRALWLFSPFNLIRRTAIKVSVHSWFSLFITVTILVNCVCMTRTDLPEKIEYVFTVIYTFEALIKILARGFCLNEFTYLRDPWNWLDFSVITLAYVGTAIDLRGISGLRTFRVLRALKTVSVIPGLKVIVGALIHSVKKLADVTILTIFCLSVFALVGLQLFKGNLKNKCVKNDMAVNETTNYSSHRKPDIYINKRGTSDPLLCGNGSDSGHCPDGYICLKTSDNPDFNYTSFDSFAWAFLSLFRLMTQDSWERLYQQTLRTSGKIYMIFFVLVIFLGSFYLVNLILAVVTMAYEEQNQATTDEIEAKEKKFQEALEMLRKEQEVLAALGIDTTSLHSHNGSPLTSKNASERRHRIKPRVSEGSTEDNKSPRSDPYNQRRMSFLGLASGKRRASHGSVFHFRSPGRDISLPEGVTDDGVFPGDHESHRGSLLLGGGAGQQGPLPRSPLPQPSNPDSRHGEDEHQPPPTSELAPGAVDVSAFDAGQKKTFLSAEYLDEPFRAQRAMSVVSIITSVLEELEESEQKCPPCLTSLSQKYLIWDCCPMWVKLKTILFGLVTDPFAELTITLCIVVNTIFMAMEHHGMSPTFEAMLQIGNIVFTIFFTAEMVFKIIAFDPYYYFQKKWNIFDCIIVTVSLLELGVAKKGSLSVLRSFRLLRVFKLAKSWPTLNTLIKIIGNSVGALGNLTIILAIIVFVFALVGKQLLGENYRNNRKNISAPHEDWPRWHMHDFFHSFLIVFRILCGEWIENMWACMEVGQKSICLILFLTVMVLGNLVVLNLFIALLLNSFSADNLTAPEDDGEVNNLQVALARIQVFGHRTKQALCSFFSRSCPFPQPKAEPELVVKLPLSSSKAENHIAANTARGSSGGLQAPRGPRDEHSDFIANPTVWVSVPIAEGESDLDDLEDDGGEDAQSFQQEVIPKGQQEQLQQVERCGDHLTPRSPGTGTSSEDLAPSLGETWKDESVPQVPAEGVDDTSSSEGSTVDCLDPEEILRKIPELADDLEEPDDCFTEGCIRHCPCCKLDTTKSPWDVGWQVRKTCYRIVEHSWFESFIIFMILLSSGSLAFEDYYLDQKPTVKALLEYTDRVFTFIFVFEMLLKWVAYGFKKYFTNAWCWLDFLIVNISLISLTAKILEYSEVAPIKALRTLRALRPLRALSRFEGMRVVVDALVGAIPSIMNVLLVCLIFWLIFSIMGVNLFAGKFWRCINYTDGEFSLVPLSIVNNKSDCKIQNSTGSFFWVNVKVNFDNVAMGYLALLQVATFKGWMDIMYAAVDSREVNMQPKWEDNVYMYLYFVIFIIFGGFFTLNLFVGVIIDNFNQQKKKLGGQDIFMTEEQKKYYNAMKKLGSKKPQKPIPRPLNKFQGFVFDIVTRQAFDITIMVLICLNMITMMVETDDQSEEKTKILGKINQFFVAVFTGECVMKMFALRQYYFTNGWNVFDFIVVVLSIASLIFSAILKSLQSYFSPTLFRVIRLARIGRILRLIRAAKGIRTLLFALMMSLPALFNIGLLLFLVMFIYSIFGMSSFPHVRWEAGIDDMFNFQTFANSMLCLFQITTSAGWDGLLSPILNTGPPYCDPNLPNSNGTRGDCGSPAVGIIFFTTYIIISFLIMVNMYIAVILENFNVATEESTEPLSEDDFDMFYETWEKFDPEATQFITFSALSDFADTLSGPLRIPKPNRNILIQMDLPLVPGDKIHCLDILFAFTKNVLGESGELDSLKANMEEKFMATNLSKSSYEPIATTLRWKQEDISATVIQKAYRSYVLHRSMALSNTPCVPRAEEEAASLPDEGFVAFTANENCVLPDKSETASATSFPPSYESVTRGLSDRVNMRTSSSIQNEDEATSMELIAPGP

In the case of `[2H]C([2H])([2H])c1cc(F)ccc1Oc1cc(C(F)(F)F)ccc1C(=O)Nc1ccn(COP(=O)(O)O)c(=O)c1` [Compound 13, (4-(2-(4-fluoro-2-(methyl-d3)phenoxy)-4-(trifluoromethyl)benzamido)-2-oxopyridin-1(2H)-yl)methyl dihydrogen phosphate], the half-life at 0.25 µM in data set [1] (cryopreserved human hepatocytes in suspension, cryopreserved human hepatocytes 0.625 million cells/mL, 37° C., Compounds 20 and 13 co-incubated, read-out: t1/2 in human hepatocytes) was under 30 min. The “conversion of prodrug to parent compound” value in data set [1] (human hepatocytes, LC-MS/MS, Compound 20 to Compound 10, Compound 13 to Compound 7) is “fast conversion”. In addition, the “% remaining” value was 100% in data set [1] (human hepatocytes, time 0 hr); 73.8% in data set [1] (human hepatocytes, time 0.25 hr); 33.2% in data set [1] (human hepatocytes, time 0.5 hr); 11.1% in data set [1] (human hepatocytes, time 1 hr); 11.8% in data set [1] (human hepatocytes, time 2 hr). The IC50 in data set [2] (11 point dose response, top dose 3 μM, read-out: Nav1.8 IC50) is 1200 nM. Moreover, in data set [2] (normalised to positive control 25 μM), the “Nav1.8 Max % Activity” value was 99%.
